Test results taken from US20230021483A1, “[…] […] METHOD AND CLASSIFICATION OF PHARMACEUTICAL COMPONENTS BY USING TRANSCRIPTOMES” (National Institutes of Biomedical Innovation, Health and …, priority 2016, published 2023).

How the values were obtained:
liver (LV) = assay: Whole organ transcriptome (GeneChip microarray) of liver 6 h after adjuvant administration: sDEGs, hierarchical clustering; format: in vivo, C57BL/6 mice; details: for Number of gene probes with statistically significant changes (sDEGs), LV, Down / Number of gene probes with statistically significant changes (sDEGs), LV, Up: liver, 6 h after adjuvant; for Number of gene probes with statistically significant changes (sDEGs), LV, Down: fold change <0.667, p<0.01, customized PA call=1; for Number of gene probes with statistically significant changes (sDEGs), LV, Up: fold change >1.5, p<0.01, customized PA call=1; as to cluster of strongly responding individual samples in LV (clustering exceptions): key: G1 (interferon signaling); G2 (metabolism of lipids and lipoproteins); G3 (response to stress); G4 (response to wounding); G5 (phosphate-containing compound metabolic process); G6 (phagosome)
[1] = system: preferentially upregulated genes in LV, SP, LN; assay: Z-score-based differential gene expression analysis (adjuvant group- or adjuvant-associated genes, 40 module mapping, TargetMine annotation); format: in vivo, C57BL/6 mice; details: ID
Method in brief: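 Per-sample fold-change values converted to gene-wise z-scores within each organ's data set, then triplicate z-scores summed per adjuvant. Genes with summed score >3 taken as preferentially expressed; gene groups defined by combined per-adjuvant z-score thresholds (z>1 to z>3) specific to each organ.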

Substance: K3: B class CpG ODN (ATCGACTCTCGAGCGTTCTC), TLR9 ligand (chemistry not given here)
- Number of gene probes with statistically significant changes (sDEGs), LV, Down (liver (LV); i.d. administration): 22
- Number of gene probes with statistically significant changes (sDEGs), LV, Up (liver (LV); i.d. administration): 10
- Number of gene probes with statistically significant changes (sDEGs), LV, Down (liver (LV); i.p. administration): 50
- Number of gene probes with statistically significant changes (sDEGs), LV, Up (liver (LV); i.p. administration): 18
- cluster of strongly responding individual samples in LV (clustering exceptions) (liver (LV); samples D35_ID_x2 and K3_ID_x3 only): G2
- z sum, 1444615_x_at Runx1t1 ([1]; LN, Module#(LN) 1): −2.11
- z sum, 1420894_at Tgfbr1 ([1]; LN, Module#(LN) 3): −2.14
- z sum, 1460069_at Smc6 ([1]; LN, Module#(LN) 7): −3.53
- z sum, 1440371_at --- ([1]; LN, Module#(LN) 8): −1.24
- z sum, 1456346_at --- ([1]; LN, Module#(LN) 9): −2.13
- z sum, 1425105_at Rbp3 ([1]; LN, Module#(LN) 10): −2.11
- z sum, 1455796_x_at Olfm1 ([1]; LN, Module#(LN) 11): −1.44
- z sum, 1443302_at --- ([1]; LN, Module#(LN) 12): −2.78
- z sum, 1442518_at C030044O21Rik ([1]; LN, Module#(LN) 14): −1.58
- z sum, 1419486_at Foxc1 ([1]; LN, Module#(LN) 19): −0.76
- z sum, 1441344_at Erlin1 ([1]; LN, Module#(LN) 21): −2.63
- z sum, 1423611_at Alpl ([1]; LN, Module#(LN) 24): −1
- z sum, 1448179_at Usmg5 ([1]; LN, Module#(LN) 24): −2.02
- z sum, 1458457_at --- ([1]; LN, Module#(LN) 26): −0.33
- z sum, 1450377_at Thbs1 ([1]; LN, Module#(LN) 28): −2.87
- z sum, 1443853_x_at Sfmbt1 ([1]; LN, Module#(LN) 32): −2.59
- z sum, 1443392_at Trpv1 ([1]; LN, Module#(LN) 33): −1.04
- z sum, 1440475_at AW011738 ([1]; LN, Module#(LN) 36): −2.36
- z sum, 1416380_at Mov10 ([1]; LN, Module#(LN) 37): −2.43
- z sum, 1421008_at Rsad2 ([1]; LN, Module#(LN) 37): −1.42
- z sum, 1421009_at Rsad2 ([1]; LN, Module#(LN) 37): −0.76
- z sum, 1424339_at Oasl1 ([1]; LN, Module#(LN) 37): −0.5
- z sum, 1426013_s_at Plekha4 ([1]; LN, Module#(LN) 37): −1.53
- z sum, 1436058_at Rsad2 ([1]; LN, Module#(LN) 37): −0.71
- z sum, 1436472_at Slfn9 ([1]; LN, Module#(LN) 37): −2
- z sum, 1447241_at --- ([1]; LN, Module#(LN) 37): −2.6
- z sum, 1416039_x_at Cyr61 ([1]; LN, Module#(LN) 39): −1.58
- z sum, 1418191_at Usp18 ([1]; LN, Module#(LN) 40): −0.03
- z sum, 1418293_at Ifit2 ([1]; LN, Module#(LN) 40): −0.49
- z sum, 1418580_at Rtp4 ([1]; LN, Module#(LN) 40): −1
- z sum, 1419603_at Ifi204 ([1]; LN, Module#(LN) 40): −1.28
- z sum, 1421911_at Stat2 ([1]; LN, Module#(LN) 40): −0.43
- z sum, 1422006_at Eif2ak2 ([1]; LN, Module#(LN) 40): −1.95
- z sum, 1422141_s_at Csprs///Gm15433///Gm2666///Gm7609///LOC100041903///LOC100503923 ([1]; LN, Module#(LN) 40): −1.36
- z sum, 1423555_a_at Ifi44 ([1]; LN, Module#(LN) 40): −1.43
- z sum, 1424444_a_at 1600014C10Rik ([1]; LN, Module#(LN) 40): −0.85
- z sum, 1424607_a_at Gm4354 ([1]; LN, Module#(LN) 40): −0.89
- z sum, 1424609_a_at Cwc22///Gm4354///Xdh ([1]; LN, Module#(LN) 40): −2.76
- z sum, 1431095_a_at Herc6 ([1]; LN, Module#(LN) 40): −0.73
- z sum, 1432417_a_at Tspan2 ([1]; LN, Module#(LN) 40): −2.15
- z sum, 1439886_at --- ([1]; LN, Module#(LN) 40): −1.19
- z sum, 1450403_at Stat2 ([1]; LN, Module#(LN) 40): −1.07
- z sum, 1451777_at Ddx60 ([1]; LN, Module#(LN) 40): 0.163
- z sum, 1452349_x_at Ifi205///Mnda ([1]; LN, Module#(LN) 40): −1.48
- z sum, 1453196_a_at Oasl2 ([1]; LN, Module#(LN) 40): −1.27
- z sum, 1453299_a_at Pnp///Pnp2 ([1]; LN, Module#(LN) 40): −0.78
- z sum, 1453757_at Herc6 ([1]; LN, Module#(LN) 40): −0.2
- z sum, 1456164_at AW011738 ([1]; LN, Module#(LN) 40): −2.08
- z sum, 1457035_at Al607873 ([1]; LN, Module#(LN) 40): −0.26
- Adar 1425405_a_at (Group G1, Modules 20) ([1]; LV, sample x1): −0.3
